Experimental findings from patent US11110089B2, “Pyridazinones and their use in the treatment of cancer” (THE UNITED STATES OF AMERICA, AS REPRESENTED BY THE …, priority 2015, dated 2021) are described below.

The target in assay [1] is T1, gluthathione reductase (GR) (Homo sapiens, UniProt P00390).
T1 sequence (P00390 44-522): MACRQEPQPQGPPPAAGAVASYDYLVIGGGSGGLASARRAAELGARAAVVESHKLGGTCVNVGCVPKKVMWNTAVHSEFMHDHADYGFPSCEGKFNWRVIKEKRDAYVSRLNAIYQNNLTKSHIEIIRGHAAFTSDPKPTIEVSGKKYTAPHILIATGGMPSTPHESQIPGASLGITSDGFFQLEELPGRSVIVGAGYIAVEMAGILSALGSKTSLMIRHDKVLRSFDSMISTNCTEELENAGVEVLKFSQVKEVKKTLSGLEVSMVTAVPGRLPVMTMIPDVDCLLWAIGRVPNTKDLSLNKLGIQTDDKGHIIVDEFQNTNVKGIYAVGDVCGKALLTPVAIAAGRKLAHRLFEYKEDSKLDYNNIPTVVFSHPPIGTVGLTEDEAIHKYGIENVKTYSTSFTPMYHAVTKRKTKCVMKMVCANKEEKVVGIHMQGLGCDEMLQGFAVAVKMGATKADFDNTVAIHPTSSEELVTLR
The assay can be described thus: Inhibition of recombinant GR (GSSG assay). It is filed as biochemical. Particulars: 2 nM GR, 250 μM NADPH, 15 minutes incubation, 1 mM GSSG, O.D. at 340 nm. On the procedure:
(§1) Small molecule inhibition of recombinant thioredoxin reductase 1 (TrxR1) and gluthathione reductase (GR) was examined in 96-well plate format. 15 nM TrxR1 was incubated in the presence of 250 μM NADPH, 0.1 mg/ml BSA, and various concentrations of the compound of Example 1 (1% DMSO final) in 50 mM Tris (pH 7.5) and 2 mM EDTA buffer for 15 minutes. Following the incubation period, 2.5 mM DTNB was added to each well and the change in O.D. at 412 nm was followed. Percent activity was determined using DMSO vehicle and no TrxR1 (blank) controls. 2 nM GR was incubated in the presence of 250 μM NADPH, 0.1 mg/ml BSA, and various concentrations of compounds (1% DMSO final) in 50 mM Tris (pH 7.5) and 2 mM EDTA buffer for 15 minutes. Following the incubation period, 1 mM GSSG was added to each well and the change in O.D. at 340 nm was followed. Percent activity was determined using DMSO vehicle and no GR (blank) controls.

For assay [2], the target named is T2, recombinant thioredoxin reductase 1 (TrxR1) (Homo sapiens, UniProt Q16881).
T2 sequence (Q16881 151-649 limits assumed): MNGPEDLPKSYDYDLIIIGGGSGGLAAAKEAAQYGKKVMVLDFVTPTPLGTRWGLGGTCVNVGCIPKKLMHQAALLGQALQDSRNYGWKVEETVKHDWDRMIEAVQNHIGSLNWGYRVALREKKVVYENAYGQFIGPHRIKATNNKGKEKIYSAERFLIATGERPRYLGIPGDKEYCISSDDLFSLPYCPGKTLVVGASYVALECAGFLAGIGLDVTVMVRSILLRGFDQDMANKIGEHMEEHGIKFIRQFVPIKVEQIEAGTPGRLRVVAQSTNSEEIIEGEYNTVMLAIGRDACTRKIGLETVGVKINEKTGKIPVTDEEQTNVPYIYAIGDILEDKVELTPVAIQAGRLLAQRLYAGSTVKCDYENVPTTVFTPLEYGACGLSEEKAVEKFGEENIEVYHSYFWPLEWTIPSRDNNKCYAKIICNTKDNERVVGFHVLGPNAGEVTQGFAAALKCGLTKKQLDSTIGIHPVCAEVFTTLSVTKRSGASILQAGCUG
Put plainly: Inhibition of recombinant TrxR1 (DTNB assay). It is filed as biochemical. To be noted: 15 nM TrxR1, 250 μM NADPH, 15 minutes incubation, 2.5 mM DTNB, O.D. at 412 nm; read-out: TrxR inhibition. How it is done:
as §1

Structures are written as SMILES.

Take `O=c1c(Cl)c(Cl)cnn1Cc1nnc(-c2ccc(Cl)cc2)o1` [Example 1, 4,5-dichloro-2-((5-(4-chlorophenyl)-1,3,4-oxadiazol-2-yl)methyl)pyridazin-3-one]: the IC50 in assay [1] is greater than 100000 nM; in assay [2], 1850 nM.
